Data: US20070208087A1, “Compounds, compositions and methods for the treatment of inflammatory diseases” (priority 2001, published 2007)
Where “and” joins values, the source holds several entries; their conditions need not be identical. Equal entries are not always repeated. Where two headings read alike, the source gives them in different places.

Columns and labels:
Assay type in all cases: cell-based
Microglial cells [1] = experiment: Dose response inhibition of NO release from microglia, 0.75-200 μM (Example 8); conditions: dose 200 μM, 48 hours; single replicates
Summary of the method: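 Microglia plated at 1×10^5 cells/ml, stimulated with LPS/IFNγ and treated at 0.75, 1.56, 3.125, 6.25, 12.5, 25, 50, 100 and 200 μM. NO release measured after 48 hours by Griess reaction.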

Microglial cells [2] = experiment: Dose response inhibition of NO release from microglia, 0.5-500 μM (Example 9); conditions: for μM NO release / μM NO release (No LPS average subtracted): 3 replicates
Procedure: This experiment was designed to determine the dose response inhibition of NO release from microglia by bis- and tris-dihydroxyaryl compounds when stimulated with LPS/IFNγ. Earlier experiments have demonostrated that some bis- and tris-dihydroxyaryl compounds are good inhibitors of NO release from microglia. This experiment is designed to determine a dose response for various effective bis- and tris-dihydroxyaryl compounds. Microglial cells were plated into 96 well plates at 1×10^5 cells/ml. At 48 hours, media was exchanged for media containing 10 ng/ml IFNγ and 10 μg/ml LPS and the following compounds 3, 4, 21, 26 and the positive control L-NAME. The doses tested were: 0.5 μM, 1.0 μM, 5.0 μM, 10 μM, 25 μM, 50 μM, 100 μM, 250 μM, and 500 μM. Nitric oxide release was measured after 48 hours using the Griess reaction.

[3] = tested on: TNF-α release from microglia; experiment: TNF-α release from LPS/IFNγ stimulated microglia, TNF-α ELISA (Example 11); conditions: 50 uM compound, TNF-α release, 10 ug LPS and 10 ng IFNγ, 24 hours
Summary of the method: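 Microglia pretreated 1 h with 50 μM bis-/tris-dihydroxyaryl compound, then stimulated with 10 μg/ml LPS + 10 ng/ml IFNγ for 24 h. Medium sampled, stored at −80°, diluted 1:50 and TNF-α measured by ELISA.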

microglia = experiment: Ranking of NO release inhibition (Example 12); conditions: Microglia, ranking table
Description: The bis- and tris-dihydroxyaryl compounds were ranked in order of effectiveness for the inhibition of NO release as set out in Table 8.

[4] = dose 0.5 μM, LPS/IFNγ, 48 hours
[5] = dose 100 μM, LPS/IFNγ, 48 hours
[6] = dose 250 μM, LPS/IFNγ, 48 hours
[7] = dose 500 μM, LPS/IFNγ, 48 hours

O=C(N[C@@H]1CCCC[C@H]1NC(=O)c1ccc(O)c(O)c1)c1ccc(O)c(O)c1 (relative stereo) [Compound 26, N,N′-bis(3,4-dihydroxybenzoyl)-trans-1,2-diaminocyclohexane]
OD values (printed under head μM NO release) (Microglial cells [1]): 0.134 and 0.136 and 0.145
μM NO release (Microglial cells [1]): 12.813 µM and 13.125 µM and 14.531 µM
inhibition at 0.5 µM (Microglial cells [2]; Microglia, 48 h, dose 0.5 μM, NO release, LPS/IFNγ, 48 hours, read-out: Avg % Inhibition): -4.06%
inhibition at 1 µM (Microglial cells [2]; Microglia, 48 h, dose 1 μM, NO release, LPS/IFNγ, 48 hours, read-out: Avg % Inhibition): 0.51%
inhibition at 5 µM (Microglial cells [2]; Microglia, 48 h, dose 5 μM, NO release, LPS/IFNγ): -4.31%
inhibition at 10 µM (Microglial cells [2]; Microglia, 48 h, dose 10 μM, NO release, LPS/IFNγ): -1.01%
inhibition at 25 µM (Microglial cells [2]; Microglia, 48 h, dose 25 μM, NO release, LPS/IFNγ): 6.85%
inhibition at 50 µM (Microglial cells [2]; Microglia, 48 h, dose 50 μM, NO release, LPS/IFNγ): 6.59%
inhibition at 100 µM (Microglial cells [2]; Microglia, 48 h, dose 100 μM, NO release, LPS/IFNγ, 48 hours, read-out: Avg % Inhibition): 16.2%
inhibition at 100 µM (Microglial cells [2]; Microglia, 48 h, dose 100 μM, individual replicates, NO release, LPS/IFNγ, 48 hours, read-out: % inhibition): 17.2%
inhibition at 250 µM (Microglial cells [2]; Microglia, 48 h, dose 250 μM, NO release, LPS/IFNγ, 48 hours, read-out: Avg % Inhibition): 35.2%
inhibition at 250 µM (Microglial cells [2]; Microglia, 48 h, dose 250 μM, individual replicates, NO release, LPS/IFNγ, 48 hours, read-out: % inhibition): 36.3%
inhibition at 500 µM (Microglial cells [2]; Microglia, 48 h, dose 500 μM, NO release, LPS/IFNγ, 48 hours, read-out: Avg % Inhibition): 99.5%
inhibition at 500 µM (Microglial cells [2]; Microglia, 48 h, dose 500 μM, individual replicates, NO release, LPS/IFNγ, 48 hours, read-out: % inhibition): 98.4%
inhibition at 500 µM (Microglial cells [2]; Microglia, 48 h, highest concentration tested (500 μM), 48 hours, read-out: inhibited NO release by): 99%
μM NO release (Microglial cells [2]; [4]): 21.667 µM and 19.306 µM and 21.111 µM
μM NO release (No LPS average subtracted) (Microglial cells [2]; [4]): 19.97 µM and 17.61 µM and 19.41 µM
% inhibition (Microglial cells [2]; dose 0.5 μM, individual replicates, NO release, LPS/IFNγ, 48 hours): −9.38% and 3.55% and −6.34%
μM NO release (Microglial cells [2]; dose 1 μM, LPS/IFNγ, 48 hours): 19.722 µM and 19.028 µM and 20.833 µM
μM NO release (No LPS average subtracted) (Microglial cells [2]; dose 1 μM, LPS/IFNγ, 48 hours): 18.02 µM and 17.33 µM and 19.13 µM
% inhibition (Microglial cells [2]; dose 1 μM, individual replicates, NO release, LPS/IFNγ, 48 hours): 1.27% and 5.07% and −4.82%
μM NO release (Microglial cells [2]; dose 5 μM, LPS/IFNγ, 48 hours): 20.000 µM and 21.528 µM and 20.694 µM
μM NO release (No LPS average subtracted) (Microglial cells [2]; dose 5 μM, LPS/IFNγ, 48 hours): 18.30 µM and 19.83 µM and 18.99 µM
% inhibition (Microglial cells [2]; dose 5 μM, individual replicates, NO release, LPS/IFNγ, 48 hours): −0.25% and −8.62%
μM NO release (Microglial cells [2]; dose 10 μM, LPS/IFNγ, 48 hours): 20.139 µM and 19.583 µM and 20.694 µM
μM NO release (No LPS average subtracted) (Microglial cells [2]; dose 10 μM, LPS/IFNγ, 48 hours): 18.44 µM and 17.88 µM and 18.99 µM
% inhibition (Microglial cells [2]; dose 10 μM, individual replicates, NO release, LPS/IFNγ, 48 hours): 2.03%
μM NO release (Microglial cells [2]; dose 25 μM, LPS/IFNγ, 48 hours): 18.194 µM and 18.333 µM and 19.583 µM
μM NO release (No LPS average subtracted) (Microglial cells [2]; dose 25 μM, LPS/IFNγ, 48 hours): 16.49 µM and 16.63 µM and 17.88 µM
% inhibition (Microglial cells [2]; dose 25 μM, individual replicates, NO release, LPS/IFNγ, 48 hours): 9.64% and 8.88% and 2.03%
μM NO release (Microglial cells [2]; dose 50 μM, LPS/IFNγ, 48 hours): 18.333 μM (2×) and 19.583 μM
μM NO release (No LPS average subtracted) (Microglial cells [2]; dose 50 μM, LPS/IFNγ, 48 hours): 16.63 μM (2×) and 17.88 μM
% inhibition (Microglial cells [2]; dose 50 μM, individual replicates, NO release, LPS/IFNγ, 48 hours): 8.88% (2×) and 2.03%
μM NO release (Microglial cells [2]; [5]): 16.806 μM (2×) and 17.361 μM
μM NO release (No LPS average subtracted) (Microglial cells [2]; [5]): 15.11 μM (2×) and 15.66 μM
% inhibition (Microglial cells [2]; dose 100 μM, individual replicates, NO release, LPS/IFNγ, 48 hours): 14.20%
μM NO release (Microglial cells [2]; [6]): 13.333 µM and 13.194 µM and 14.028 µM
μM NO release (No LPS average subtracted) (Microglial cells [2]; [6]): 11.63 µM and 11.49 µM and 12.33 µM
% inhibition (Microglial cells [2]; dose 250 μM, individual replicates, NO release, LPS/IFNγ, 48 hours): 37.03% and 32.46%
μM NO release (Microglial cells [2]; [7]): 2.000 µM and 1.500 µM and 1.867 µM
μM NO release (No LPS average subtracted) (Microglial cells [2]; [7]): 0.30 µM and -0.20 µM and 0.17 µM
% inhibition (Microglial cells [2]; dose 500 μM, individual replicates, NO release, LPS/IFNγ, 48 hours): 101.10% and 99.09%
% inhibition ([3]; individual replicates, 50 µM): −12.44% and −21.81% and −16.22%
inhibition at 50 µM ([3]; Microglia, 24 h, read-out: Avg % Inhibition): -16.8%
inhibition at 50 µM (microglia): 20%
